Assay results: ChEMBL document CHEMBL3044863, “Optimization of biological (Phasmarhabditis hermaphrodita) and chemical (iron phosphate and metaldehyde) slug control” (Crop Prot, 2009)
The source made the active and inactive calls. The calls are words filed in the database; no cut-off is given here.

Experiments:
Format in all cases: functional, organism-based
[1] = test system: Deroceras reticulatum; test: Molluscicidal activity against Deroceras reticulatum in Chinese cabbage at 0.8 g/m2 after 21 to 42 days by miniplot trial analysis in presence of 135 mm rainfall
[2] = test system: Deroceras reticulatum; test: Molluscicidal activity against Deroceras reticulatum in Chinese cabbage at 0.8 g/m2 after 7 to 14 days by miniplot trial analysis in presence of 135 mm rainfall
[3] = test system: Deroceras reticulatum; test: Molluscicidal activity against Deroceras reticulatum in Chinese cabbage at 0.8 g/m2 after 7 days by miniplot trial analysis in presence of 135 mm rainfall
[4] = test system: Deroceras panormitanum; test: Molluscicidal activity against Deroceras panormitanum assessed as reduction of slug number at 0.8 g/m2 after 42 days
[5] = test system: Arion subfuscus; test: Molluscicidal activity against Arion subfuscus in Chinese cabbage at 0.8 g/m2 after 7 to 42 days
[6] = test system: Arion subfuscus; test: Molluscicidal activity against Arion subfuscus assessed as reduction of slug number at 0.8 g/m2 after 42 days
[7] = test system: Deroceras reticulatum; test: Molluscicidal activity against Deroceras reticulatum assessed as reduction of slug number at 0.8 g/m2 after 42 days
[8] = test system: Deroceras reticulatum; test: Molluscicidal activity against Deroceras reticulatum in Chinese cabbage at 0.8 g/m2 after 7 to 42 days
[9] = test system: Deroceras reticulatum; test: Molluscicidal activity against Deroceras reticulatum in Chinese cabbage at 0.8 g/m2 after 7 to 42 days by miniplot trial analysis in presence of 17 mm rainfall
[10] = test system: Arion subfuscus; test: Molluscicidal activity against Arion subfuscus in Chinese cabbage at 0.8 g/m2 after 7 to 42 days by miniplot trial analysis in presence of 17 mm rainfall
[11] = test system: Arion subfuscus; test: Molluscicidal activity against Arion subfuscus in Chinese cabbage at 0.8 g/m2 after 7 to 42 days by miniplot trial analysis in presence of 65.4 mm rainfall
[12] = test system: Deroceras reticulatum; test: Molluscicidal activity against Deroceras reticulatum in Chinese cabbage at 0.8 g/m2 after 7 to 42 days by miniplot trial analysis in presence of 65.4 mm rainfall
[13] = test system: Arion subfuscus; test: Molluscicidal activity against Arion subfuscus in Chinese cabbage at 0.8 g/m2 after 21 to 42 days by miniplot trial analysis in presence of 135 mm rainfall
[14] = test system: Arion subfuscus; test: Molluscicidal activity against Arion subfuscus in Chinese cabbage at 0.8 g/m2 after 7 to 14 days by miniplot trial analysis in presence of 135 mm rainfall
[15] = test system: Arion subfuscus; test: Molluscicidal activity against Arion subfuscus in Chinese cabbage at 0.8 g/m2 after 7 days by miniplot trial analysis in presence of 135 mm rainfall
[16] = test system: Deroceras reticulatum; test: Molluscicidal activity against Deroceras reticulatum in Chinese cabbage at 0.8 g/m2 after 7 to 28 days by miniplot trial analysis in presence of 65.8 mm rainfall
[17] = test system: Arion subfuscus; test: Molluscicidal activity against Arion subfuscus in Chinese cabbage at 0.8 g/m2 after 7 to 14 days by miniplot trial analysis in presence of 65.8 mm rainfall
[18] = test system: Arion subfuscus; test: Molluscicidal activity against Arion subfuscus in Chinese cabbage at 0.8 g/m2 after 21 to 28 days by miniplot trial analysis in presence of 65.8 mm rainfall
[19] = test system: Deroceras reticulatum; test: Molluscicidal activity against Deroceras reticulatum in Chinese cabbage at 5 g/m2 after 7 to 42 days by miniplot trial analysis in presence of 17 mm rainfall
[20] = test system: Deroceras reticulatum; test: Molluscicidal activity against Deroceras reticulatum in Chinese cabbage at 5 g/m2 after 7 to 28 days by miniplot trial analysis in presence of 65.8 mm rainfall
[21] = test system: Arion subfuscus; test: Molluscicidal activity against Arion subfuscus in Chinese cabbage at 5 g/m2 after 7 to 14 days by miniplot trial analysis in presence of 65.8 mm rainfall
[22] = test system: Arion subfuscus; test: Molluscicidal activity against Arion subfuscus in Chinese cabbage at 5 g/m2 after 7 to 42 days by miniplot trial analysis in presence of 17 mm rainfall
[23] = test system: Arion subfuscus; test: Molluscicidal activity against Arion subfuscus in Chinese cabbage at 5 g/m2 after 21 to 28 days by miniplot trial analysis in presence of 65.8 mm rainfall

CC1OC(C)OC(C)OC(C)O1 (stereo not drawn)
Activity [1]: Active | Activity [2]: Active | Activity [3]: Active | Activity [4]: inactive | Activity [5]: Active | Activity [6]: inactive | Activity [7]: inactive | Activity [8]: Active | Activity [9]: Active | Activity [10]: Active | Activity [11]: Active | Activity [12]: Active | Activity [13]: Active | Activity [14]: Active | Activity [15]: Active | Activity [16]: Active | Activity [17]: Active | Activity [18]: inactive

IRON PHOSPHATE
Activity [19]: Active | Activity [20]: Active | Activity [21]: Active | Activity [22]: Active | Activity [23]: inactive
